The source of these data is patent US12527779B2, “Prostaglandin E2 (PGE2) EP4 receptor antagonists” (Domain Therapeutics, priority 2019, dated 2026).

Molecules are shown by their SMILES. Counter-ions that a name gives are not always drawn.

The experiment deals with T1, human EP4 (hEP4) receptor (Homo sapiens, UniProt P35408).
T1 construct: expressed in transfected cells; host or cells: HEK-293 T cells, transient co-transfection with polyethylenimine
T1 sequence (P35408 whole entry): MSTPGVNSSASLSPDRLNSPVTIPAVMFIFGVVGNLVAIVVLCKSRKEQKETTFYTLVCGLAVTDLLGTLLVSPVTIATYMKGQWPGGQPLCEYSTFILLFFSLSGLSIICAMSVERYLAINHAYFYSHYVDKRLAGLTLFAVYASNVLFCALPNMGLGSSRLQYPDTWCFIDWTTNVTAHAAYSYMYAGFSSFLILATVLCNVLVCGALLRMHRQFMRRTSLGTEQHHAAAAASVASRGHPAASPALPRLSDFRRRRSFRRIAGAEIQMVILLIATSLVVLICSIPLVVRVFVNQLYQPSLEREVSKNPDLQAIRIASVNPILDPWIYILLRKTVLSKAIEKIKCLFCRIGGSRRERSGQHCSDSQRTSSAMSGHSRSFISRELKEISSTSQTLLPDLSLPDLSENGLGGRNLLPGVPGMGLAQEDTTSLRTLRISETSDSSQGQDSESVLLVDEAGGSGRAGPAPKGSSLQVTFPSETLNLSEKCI
The experiment can be described thus: In vitro human EP4 functional antagonist activity using BRET biosensors (cAMP EPAC biosensor, TCS2510 stimulation). Type of experiment: cell-based. The note with it: antagonist activity vs EC60 TCS2510, hEP4 in HEK-293 T cells. The procedure: Examples of the present invention were tested successively for their agonist and antagonist activities on human EP4 (hEP4) receptor transiently over-expressed in HEK-293 T cells. […] The assay used to measure compound activity is based on the BRET technology. The unimolecular cAMP biosensor used to detect intracellular cAMP levels following GPCR stimulation consists of the EPAC protein fused to N- and C-terminal of Luciferase and GFP respectively.
Cell Culture and Transfection: HEK-293 T cells are maintained in Dulbecco's Modified Eagle's Medium supplemented with 10% Foetal Calf Serum, 1% Penicillin/Streptomycin at 37° C./5% CO2. Cells are co-transfected using polyethylenimine (25 kDa linear) with two DNA plasmids encoding hEP4, EPAC fused to luciferase (BRET donor) and to GFP (BRET acceptor). After transfection, cells are cultured (40,000 cells per well) for 48 h at 37° C./5% CO2.
BRET assay: Receptor activity is detected by changes in BRET signal. On the day of the assay, cells are rinsed and incubated in assay buffer (1.8 mM CaCl2, 1 mM MgCl2, 2.7 mM KCl, 137 mM NaCl, 0.4 mM NaH2PO4, 5.5 mM D-Glucose, 11.9 mM NaHCO3, 25 mM Hepes). Then, plates are equilibrated 1 h at 22° C. before adding compounds. Compounds and luciferase substrate are added to the cells using an automated device (Freedom Evo®, Tecan) and BRET readings are collected on EnVision (PerkinElmer) with specific filters (410 nm BW 80 nm, 515 nm BW 30 nm). Agonist and antagonist activities of compounds are consecutively evaluated on the same cell plate. Agonist activity is first measured after 5 min incubation with compound alone on the cells. Then, cells are stimulated by an EC60 TCS2510 concentration and luminescence is recorded for additional 10 min. EC60 TCS2510 concentration is the concentration giving 60% of the maximal TCS2510 response. Agonist or antagonist activities are evaluated in comparison to basal signals evoked by assay buffer or EC60 TCS2510 alone, respectively.
For IC50 determination, a dose-response test is performed using 10 concentrations (ranging over 4.5 logs) of each compound. Dose-response curves are fitted using the sigmoidal dose-response (variable slope) analysis in GraphPad Prism software (GraphPad Software) and IC50 of antagonist activity is calculated. Dose-response experiments are performed in duplicate, in two independent experiments. IC50 values are categorized as following: A: IC50<0.1 μM; B: IC50<1 μM.
(In general: Bioluminescence resonance energy transfer reports proximity on the nanometre scale.)
By IC50 is commonly meant the concentration needed to halve the response being measured. Read a high IC50 as weaker potency. Turning to `COc1ccccc1OCCN(C)C1(C(=O)NC2(c3ccc(C(=O)O)cc3)CC2)CCOCC1` [Example 39, 4-[1-[[4-[2-(2-Methoxyphenoxy)ethyl-methyl-amino]tetrahydropyran-4-carbonyl]amino]cyclopropyl]benzoic acid, hydrochloride], the 50% inhibitory concentration (IC50) was < 1 µM.
`CN(CCOc1ccccc1OC(F)(F)F)C1(C(=O)NC2(c3ccc(C(=O)O)cc3)CC2)CCOCC1` [Example 44, 4-[1-[[4-[2-(2-Trifluoromethoxyphenoxy)ethyl-methyl-amino]tetrahydropyran-4-carbonyl]amino]cyclopropyl]benzoic acid, hydrochloride]: the 50% inhibitory concentration (IC50) was < 0.1 µM.
As for `C[C@H](NC(=O)C1(c2ccc(OCC3CCCCC3)cc2)CCCC1)c1ccc(C(=O)O)cc1` [Example 108, 4-[(1S)-1-[[1-[4-(Cyclohexylmethoxy)phenyl]cyclopentanecarbonyl]amino]ethyl]benzoic acid], the IC50 was < 0.1 µM.
The same measure for `C[C@H](NC(=O)C1(c2ccc(OCCC3CCCCC3)nc2)CCOCC1)c1ccc(C(=O)O)cc1` [Example 122, 4-[(1S)-1-[[4-[6-(2-Cyclohexylethoxy)-3-pyridyl]tetrahydropyran-4-carbonyl]amino]ethyl]benzoic acid]: < 1 µM.
On to `O=C(O)c1ccc(C2(NC(=O)C3(N4CC[C@H](Oc5cccc(Cl)c5)C4)CCOCC3)CC2)cc1` [Example 139, 4-[1-[[4-[(3S)-3-(3-Chlorophenoxy)pyrrolidin-1-yl]tetrahydropyran-4-carbonyl]amino]cyclopropyl]benzoic acid, hydrochloride], for which the IC50 is < 1 µM.
The same measure for `CNC(=O)c1ccc([C@H](C)NC(=O)C2(N(C)CCOc3ccccc3)CCOCC2)cc1` [Example 4, N-[(1S)-1-[4-(Methylcarbamoyl)phenyl]ethyl]-4-[methyl(2-phenoxyethyl)amino]tetrahydropyran-4-carboxamide]: < 1 µM.
As to `CCC(CC)(C(=O)N[C@@H](C)c1ccc(C(=O)O)cc1)N1CC[C@@H](Oc2cccc(Cl)c2)C1` [Example 210, 4-[(1S)-1-[[2-[(3R)-3-(3-Chlorophenoxy)pyrrolidin-1-yl]-2-ethylbutane-carbonyl]amino]ethyl]benzoic acid, hydrochloride], the half-maximal inhibitory concentration (IC50) is < 0.1 µM.
The same measure for `C[C@H](NC(=O)C1(NCCOc2ccccc2)CCOC(C)(C)C1)c1ccc(C(=O)O)cc1` (single isomer, unassigned) [Example 72, hydrochloride]: < 0.1 µM; for `C[C@H](NC(=O)C1(c2cccc(OCC3CCCCCC3)c2)CCOCC1)c1ccc(C(=O)O)cc1` [Example 103, 4-[(1S)-1-[[4-[3-(Cycloheptylmethoxy)phenyl]tetrahydropyran-4-carbonyl]amino]ethyl]benzoic acid]: < 0.1 µM.
The same measure for `C[C@H](NC(=O)C1(CCCOc2ccccc2)CCOCC1)c1ccc(C(=O)O)cc1` [Example 81, 4-[(1S)-1-[[4-(3-Phenoxypropyl)tetrahydropyran-4-carbonyl]amino]ethy]benzoic Acid]: < 0.1 µM; for `C[C@H](NC(=O)C1(N2CC[C@@H](Oc3cccc(C(F)(F)F)c3)C2)CCOCC1)c1ccncc1` [Example 184, N—((S)-1-(Pyridin-4-yl)ethyl)-4-((R)-3-(3-(trifluoromethyl)phenoxy)pyrrolidin-1-yl)tetrahydro-2H-pyran-4-carboxamide, hydrochloride]: < 1 µM.
Consider `C[C@H](NC(=O)C1(c2cccc(OCC3CCCCC3)c2)CCOCC1)c1ccc(C(=O)O)cc1` [Example 97, 4-[(1S)-1-[[4-[3-(Cyclohexylmethoxy)phenyl]tetrahydropyran-4-carbonyl]amino]ethyl]benzoic acid], for which the IC50 was < 1 µM.
As to `C[C@H](NC(=O)C1(c2ccnc(OCC3CCCCC3)c2)CCCC1)c1ccc(C(=O)O)cc1` [Example 124, 4-[(1S)-1-[[1-[2-(Cyclohexylmethoxy)-4-pyridyl]cyclopentanecarbonyl]amino]ethyl]benzoic acid], the half-inhibitory concentration (IC50) was < 0.1 µM.
For `C[C@H](NC(=O)C1(N2CC[C@@H](Oc3cccc(C(F)(F)F)c3)C2)CCOCC1)c1ccc(O)cc1` [Example 181, N—((S)-1-(4-Hydroxyphenyl)ethyl)-4-((R)-3-(3-(trifluoromethyl)phenoxy)pyrrolidin-1-yl)tetrahydro-2H-pyran-4-carboxamide, hydrochloride], the IC50 is < 1 µM.
On to `Cc1cccc(O[C@@H]2CCN(C3(C(=O)N[C@@H](C)c4ccc(C(=O)O)cc4)CCOCC3)C2)c1` [Example 150, 4-[(1S)-1-[[4-[(3R)-3-(3-Methylphenoxy)pyrrolidin-1-yl]tetrahydropyran-4-carbonyl]amino]ethyl]benzoic acid, hydrochloride], for which the IC50 is < 0.1 µM.
For the compound `C[C@H](NC(=O)C1(N2CC[C@@H](Oc3cccc(C(F)(F)F)c3)C2)CCC1)c1ccc(C(=O)O)cc1` [Example 165, 4-[(1S)-1-[[1-[(3R)-3-[3-(Trifluoromethyl)phenoxy]pyrrolidin-1-yl]cyclobutane-1-carbonyl]amino]ethyl]benzoic acid, hydrochloride], the IC50 is < 0.1 µM.
Consider `O=C(O)c1ccc(C2(NC(=O)C3(N4CCC[C@H](Oc5cccc(Cl)c5)C4)CCOCC3)CC2)cc1` [Example 135, 4-[1-[[4-[(3S)-3-(3-Chlorophenoxy)-1-piperidyl]tetrahydropyran-4-carbonyl]amino]cyclopropyl]benzoic acid, hydrochloride], for which the IC50 is < 1 µM.
Consider `C[C@H](NC(=O)C1(c2ccc(OCC(F)(F)F)cc2)CCOCC1)c1ccc(C(=O)O)cc1` [Example 91, 4-[(1S)-1-[[4-[4-(2,2,2-Trifluoroethoxy)phenyl]tetrahydropyran-4-carbonyl]amino]ethyl]benzoic acid], for which the IC50 was < 1 µM.
Take `C[C@H](NC(=O)C1(NCC2CCCCC2)CCOCC1)c1ccc(C(=O)O)cc1` [Example 21, 4-[(1S)-1-[[4-(Cyclohexylmethylamino)tetrahydropyran-4-carbonyl]amino]ethyl]benzoic acid, hydrochloride]: the 50% inhibitory concentration (IC50) is < 1 µM.
Take `C[C@H](NC(=O)C1(c2cccc(OCc3ccccc3)c2)CCCC1)c1ccc(C(=O)O)cc1` [Example 113, 4-[(1S)-1-[[1-(3-Benzyloxyphenyl)cyclopentanecarbonyl]amino]ethyl]benzoic acid]: the IC50 was < 0.1 µM.
The same measure for `Cc1cc(C2(NC(=O)C3(N4CC[C@@H](Oc5cccc(C(F)(F)F)c5)C4)CCOCC3)CC2)ccc1C(=O)O` [Example 198, (R)-2-Methyl-4-(1-(4-(3-(3-(trifluoromethyl)phenoxy)pyrrolidin-1-yl)tetrahydro-2H-pyran-4-carboxamido)cyclopropyl)benzoic acid, hydrochloride]: < 0.1 µM.
In the case of `COc1cccc(O[C@@H]2CCN(C3(C(=O)NC4(c5ccc(C(=O)O)cc5)CC4)CCOCC3)C2)c1` [Example 149, 4-[1-[[4-[(3R)-3-(3-Methoxyphenoxy)pyrrolidin-1-yl]tetrahydropyran-4-carbonyl]amino]cyclopropyl]benzoic acid, hydrochloride], the half-maximal inhibitory concentration (IC50) is < 0.1 µM.
`C[C@H](NC(=O)C1(N2CC[C@@H](Oc3cccc(C(F)(F)F)c3)C2)CCOCC1)c1ccc(-c2cn[nH]c2)cc1` [Example 176, N—((S)-1-(4-(1H-Pyrazol-4-yl)phenyl)ethyl)-4-((R)-3-(3-(trifluoromethyl)phenoxy)pyrrolidin-1-yl)tetrahydro-2H-pyran-4-carboxamide, hydrochloride]: the 50% inhibitory concentration (IC50) is < 0.1 µM.
